Reference: the supplement of paper PMC10307832

How the values were obtained:
Experiment in all cases: relative viability (nuclei count vs DMSO), 5 days (fraction); higher = more cells survive
Quizartinib + Dasatinib = compound: CC(C)(C)c1cc(NC(=O)Nc2ccc(-c3cn4c(n3)sc3cc(OCCN5CCOCC5)ccc34)cc2)no1 [Quizartinib] + Cc1nc(Nc2ncc(C(=O)Nc3c(C)cccc3Cl)s2)cc(N2CCN(CCO)CC2)n1 [Dasatinib] (partner 0.075 µM)
In short: (§1)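 Five library-drug doses in √10 steps were combined with a fixed anchor-drug dose, or a single drug was given alone, by pin tool to lung cancer cell lines in 1536-well plates the day after seeding. Nuclei were stained and counted after 5 days. Relative viability is the nuclei count in treated wells over that in vehicle wells, taken as the median of duplicate plates.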

YM155 + Trametinib = compound: COCC[n+]1c2c(n(Cc3cnccn3)c1C)C(=O)c1ccccc1C2=O [YM155] + CC(=O)Nc1cccc(-n2c(=O)n(C3CC3)c(=O)c3c(Nc4ccc(I)cc4F)n(C)c(=O)c(C)c32)c1 [Trametinib] (partner 0.02 µM)
In short: as §1

YM155 + Pictilisib = compound: COCC[n+]1c2c(n(Cc3cnccn3)c1C)C(=O)c1ccccc1C2=O [YM155] + CS(=O)(=O)N1CCN(Cc2cc3nc(-c4cccc5[nH]ncc45)nc(N4CCOCC4)c3s2)CC1 [Pictilisib] (partner 1 µM)
In short: as §1

YM155 + Foretinib = compound: COCC[n+]1c2c(n(Cc3cnccn3)c1C)C(=O)c1ccccc1C2=O [YM155] + COc1cc2c(Oc3ccc(NC(=O)C4(C(=O)Nc5ccc(F)cc5)CC4)cc3F)ccnc2cc1OCCCN1CCOCC1 [Foretinib] (partner 0.25 µM)
In short: as §1

Row | Cell Line | relative viability (Quizartinib + Dasatinib; first compound 0.001 µM) | relative viability (Quizartinib + Dasatinib; first compound 0.003162 µM) | relative viability (Quizartinib + Dasatinib; first compound 0.01 µM) | relative viability (Quizartinib + Dasatinib; first compound 0.03162 µM) | relative viability (Quizartinib + Dasatinib; first compound 0.1 µM) | relative viability (YM155 + Trametinib; first compound 0.002 µM) | relative viability (YM155 + Trametinib; first compound 0.006325 µM) | relative viability (YM155 + Trametinib; first compound 0.02 µM) | relative viability (YM155 + Trametinib; first compound 0.06325 µM) | relative viability (YM155 + Pictilisib; first compound 0.002 µM) | relative viability (YM155 + Pictilisib; first compound 0.006325 µM) | relative viability (YM155 + Pictilisib; first compound 0.02 µM) | relative viability (YM155 + Pictilisib; first compound 0.06325 µM) | relative viability (YM155 + Foretinib; first compound 0.002 µM) | relative viability (YM155 + Foretinib; first compound 0.006325 µM) | relative viability (YM155 + Foretinib; first compound 0.02 µM) | relative viability (YM155 + Foretinib; first compound 0.06325 µM)
1 | 201T | 0.588 | 0.563 | 0.621 | 0.574 | 0.57 | 0.701 | 0.72 | 0.702 | 0.761 | 0.703 | 0.677 | 0.672 | 0.707 | 1.16 | 1.11 | 1.05 | 1.16
2 | A549 | – | – | – | – | – | – | – | – | – | 0.511 | 0.454 | 0.378 | 0.0793 | 0.923 | 0.932 | 1.1 | 0.624
3 | A-427 | – | 0.718 | 0.706 | 0.657 | 0.663 | 0.739 | 0.796 | 0.757 | 0.526 | 0.592 | 0.736 | 0.802 | 0.705 | 1.08 | 0.984 | 0.976 | 1.05
4 | ABC-1 | 0.578 | 0.572 | 0.661 | – | 0.502 | – | – | – | – | 0.637 | 0.594 | 0.341 | 0.197 | 1.03 | 0.824 | 0.206 | 0.2
5 | BEN | 0.292 | 0.335 | 0.347 | 0.257 | 0.318 | 0.984 | 0.864 | 0.951 | 1.2 | 0.53 | 0.644 | 0.627 | 0.578 | 0.622 | 0.716 | 0.804 | 0.645
6 | CAL-12T | 0.382 | 0.489 | 0.535 | 0.388 | 0.328 | 0.281 | 0.337 | 0.346 | 0.333 | – | 0.566 | 0.557 | 0.392 | 1.14 | 1.16 | 0.928 | 0.587
7 | COR-L23 | 0.452 | 0.437 | 0.557 | 0.414 | 0.461 | 0.629 | 0.577 | 0.566 | 0.192 | 0.692 | 0.636 | 0.408 | 0.175 | 0.941 | 0.866 | 0.658 | 0.244
8 | COR-L 105 | 0.385 | 0.408 | 0.413 | 0.381 | 0.283 | 0.433 | 0.449 | 0.484 | 0.456 | 0.332 | 0.493 | 0.447 | 0.404 | 0.994 | 1.02 | 0.848 | 0.733
9 | Calu-6 | – | – | – | – | – | – | – | – | – | 0.879 | 0.605 | 0.169 | 0.13 | 0.882 | 0.845 | 0.727 | 0.0962
10 | ChaGo-K-1 | 0.595 | 0.543 | 0.588 | 0.606 | 0.56 | 0.832 | 0.929 | 0.865 | 0.913 | 0.671 | 0.65 | 0.63 | 0.718 | 0.854 | 0.984 | 0.926 | 0.854
11 | EBC-1 | – | – | – | – | – | – | – | – | – | 0.436 | 0.345 | 0.459 | 0.339 | 0.0935 | 0.0954 | 0.0823 | 0.089
12 | EKVX | – | 0.588 | 0.514 | 0.56 | 0.602 | 0.394 | 0.369 | 0.376 | 0.249 | 0.422 | 0.497 | 0.439 | 0.339 | 0.858 | 0.757 | 1.32 | 0.69
13 | EMC-BAC-2 | 0.296 | 0.299 | 0.294 | – | 0.375 | 0.924 | 0.96 | 0.968 | 0.429 | 0.545 | 0.533 | 0.556 | 0.484 | 1.03 | 0.986 | 0.966 | 0.95
14 | EPLC-272H | 0.326 | 0.366 | 0.4 | 0.38 | 0.377 | 0.294 | 0.27 | 0.335 | 0.302 | 0.307 | 0.268 | 0.286 | 0.328 | 0.694 | 0.71 | 0.849 | 0.735
15 | H3255 | 0.414 | 0.347 | 0.366 | 0.346 | 0.345 | 0.583 | 0.666 | 0.632 | 0.542 | 0.483 | 0.5 | 0.477 | 0.424 | 0.917 | 0.896 | 0.998 | 1.07
16 | HARA | – | 0.231 | 0.252 | 0.215 | 0.268 | – | 0.996 | 0.629 | 0.676 | 0.371 | 0.397 | 0.533 | 0.461 | 0.892 | 1.03 | 0.94 | 1.04
17 | HCC-15 | – | 0.58 | 0.594 | – | 0.6 | 0.331 | 0.389 | 0.283 | 0.423 | 0.612 | 0.687 | 0.723 | 0.614 | 0.992 | 1.05 | 0.888 | 0.515
18 | HCC-44 | – | – | – | – | – | 1.05 | 1.08 | 1.08 | 1.15 | 0.565 | 0.469 | 0.674 | 0.726 | – | – | – | –
19 | HCC-78 | 0.354 | 0.53 | 0.308 | 0.294 | 0.346 | 0.698 | 0.756 | 0.785 | 0.879 | 0.206 | 0.225 | 0.2 | 0.276 | 0.53 | 0.51 | 0.543 | 0.586
